Data published in US8598374B2, “GPR120 receptor agonists and uses thereof” (Metabolex, Inc, priority 2008, dated 2013).

Assays:
C57BL/6J mice = test: Oral glucose tolerance test; format: in vivo; conditions: Table 2; 100 mg/kg oral gavage, 3 g/kg oral glucose, mice fasted 6 hours
Protocol: 8-10 week old male C57BL/6J mice (Harlan) were maintained on regular chow diet from Harlan (2018 Teklad Global). On the day of the experiment mice were fasted for 6 hours, then randomized into groups (n=10-15) to receive the tested GPR120 agonist at doses ranging from 100 mg/kg or the vehicle (1% CMC, 2% TWEEN 80). Compounds were delivered orally via gavage at 10 mL/kg. Blood glucose levels were measured by glucometer (Ascensia Elite XL, Bayer) at time −30 minutes before administration of compound. Blood glucose was measured again after 30 minutes (at time 0), and then the mice were dosed orally with 3 g/kg glucose at 10 mL/kg. […]
Glucose levels were plotted against time, and the incremental area under the curve (AUC) of the glucose excursion was determined from time 0 using Graphpad Prism 5.01. Outliers were excluded using Tukey's box plot outlier test, and statistical significance of differences in AUC of compound treatment compared to vehicle was determined by non-parametric Kruskal-Wallis test with Dunn's post test.
Tables 2 and 3 below show the mean percentage inhibition of the glucose excursion for the fifteen animals tested in each group. The compounds were tested at 100 mg/kg and the levels of blood glucose were determined in the presence and absence of the tested compounds. […]

human GPR120 [1] = molecular target: T1, human GPR120 (Homo sapiens, UniProt Q5NUL3); test: Intracellular Ca2+ assay (FLIPR Calcium 4, Flexstation) in human GPR120 stable cell line; format: cell-based; conditions: % activity at 5 μM compared to the maximal activity of GW9508 at 6.7 μM; HEK293 cells co-expressing Gqi5
T1 construct: Flag (DYKDDDDK) (N); host or cells: HEK293 cells co-expressing Gqi5
T1 sequence (Q5NUL3 1-361): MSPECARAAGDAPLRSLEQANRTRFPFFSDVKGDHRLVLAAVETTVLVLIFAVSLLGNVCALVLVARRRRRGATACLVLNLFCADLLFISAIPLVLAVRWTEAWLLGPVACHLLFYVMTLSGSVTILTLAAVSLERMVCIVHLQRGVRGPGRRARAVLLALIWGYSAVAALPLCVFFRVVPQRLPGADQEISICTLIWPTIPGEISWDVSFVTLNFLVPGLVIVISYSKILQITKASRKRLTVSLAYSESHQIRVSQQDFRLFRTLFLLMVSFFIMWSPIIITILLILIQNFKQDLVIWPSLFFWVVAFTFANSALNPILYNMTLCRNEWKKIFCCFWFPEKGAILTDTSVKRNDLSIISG

human GPR120 [2] = molecular target: T1, human GPR120; test: as above; format: cell-based; conditions: % activity at 2.5 μM compared to the maximal activity of the compound of Example 25 at 2.5 μM; HEK293 cells co-expressing Gqi5
Summary of the method: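 HEK293 cells co-expressing Gqi5 and stably expressing Flag-tagged human GPR120 were seeded at 70,000 cells per well in poly-D-lysine coated 96 well plates and loaded with FLIPR Calcium 4 dye for 50 minutes at 37° C. On a Flexstation, compound-induced fluorescence (excitation 485 nm, emission 525) was recorded for 90 seconds. Percent activity was expressed against a reference agonist's maximal activity at 2.5 μM, set as 100%.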

| SMILES | % Activity (Ex. 25 Reference Compound) (human GPR120 [2]) [%] | further results |
| --- | --- | --- |
| CC(Cc1ccc(OCc2cc(Cl)cc3c2OC(C)(C)C3)c(F)c1)C(=O)O (stereo not shown) [Example 10, 3-(4-((5-chloro-2,2-dimethyl-2,3-dihydrobenzofuran-7-yl)methoxy)-3-fluorophenyl)-2-methylpropanoic acid] |  | % reduction AUC glucose excursion at 100 mg/kg (C57BL/6J mice): 58.1% |
| CC(Cc1ccc(OCc2cccc3c2CC(C)(C)O3)cc1)C(=O)O (stereo not shown) [Example 17, 3-(4-((2,2-dimethyl-2,3-dihydrobenzofuran-4-yl)methoxy)phenyl)-2-methylpropanoic acid] |  | % Activity (GW9508 Reference Compound) (human GPR120 [1]): 72.21% |
| Cc1c(CCC(=O)O)ccc(OCc2cc(Cl)cc3c2OC(C)(C)C3)c1C [Example 209, 3-(4-((5-chloro-2,2-dimethyl-2,3-dihydrobenzofuran-7-yl)methoxy)-2,3-dimethylphenyl)propanoic acid] | 142.22 |  |
| Cc1cc(OCc2cc(F)cc3c2OC(C)(C)C3)c(F)cc1CCC(=O)O [Example 214, 3-(5-fluoro-4-((5-fluoro-2,2-dimethyl-2,3-dihydrobenzofuran-7-yl)methoxy)-2-methylphenyl)propanoic acid] | 143.21 |  |
| CCc1c(CCC(=O)O)ccc(OCc2cc(F)cc3c2OC(C)(C)C3)c1F [Example 216, 3-(2-ethyl-3-fluoro-4-((5-fluoro-2,2-dimethyl-2,3-dihydrobenzofuran-7-yl)methoxy)phenyl)propanoic acid] | 144.23 |  |
| CC1(C)Cc2cc(F)cc(COc3ccc(CCC(=O)O)c4c3CCCC4)c2O1 [Example 218, 3-(4-((5-fluoro-2,2-dimethyl-2,3-dihydrobenzofuran-7-yl)methoxy)-5,6,7,8-tetrahydronaphthalen-1-yl)propanoic acid] | 114.48 |  |
| CCc1cc(OCc2cc(F)cc3c2OC(C)(C)C3)c(F)cc1CCC(=O)O [Example 220, 3-(2-ethyl-5-fluoro-4-((5-fluoro-2,2-dimethyl-2,3-dihydrobenzofuran-7-yl)methoxy)phenyl)propanoic acid] | 115.86 |  |
| [2H]C([2H])(Oc1ccc(CCC(=O)O)c(CC)c1F)c1cc(F)cc2c1OC(C)(C)C2 [Example 228, 3-(4-(dideuterio(5-fluoro-2,2-dimethyl-2,3-dihydrobenzofuran-7-yl)methoxy)-3-fluoro-2-ethylphenyl)propanoic acid] | 119.11 |  |
| [2H]C([2H])(Oc1ccc(CC(C)C(=O)O)cc1F)c1cc(F)cc2c1OC(C)(C)C2 (stereo not shown) [Example 230, 3-(4-(dideuterio(5-fluoro-2,2-dimethyl-2,3-dihydrobenzofuran-7-yl)methoxy)-3-fluorophenyl)-2-methylpropanoic acid] | 86.25 |  |
| [2H]C([2H])(Oc1ccc(CC(C)C(=O)O)cc1C(F)(F)F)c1cc(F)cc2c1OC(C)(C)C2 (stereo not shown) [Example 231, 3-(4-(dideuterio(5-fluoro-2,2-dimethyl-2,3-dihydrobenzofuran-7-yl)methoxy)-3-(trifluoromethyl)phenyl)-2-methylpropanoic acid] | 101.01 |  |
| [2H]C([2H])(C(=O)O)C([2H])([2H])c1ccc(OCc2cc(Cl)cc3c2OC(C)(C)C3)c(F)c1 [Example 241, 3-(4-((5-chloro-2,2-dimethyl-2,3-dihydrobenzofuran-7-yl)methoxy)-3-fluorophenyl)-2,2,3,3-tetradeuteriopropanoic acid] | 159.62 |  |
| [2H]C([2H])(C(=O)O)C([2H])([2H])c1ccc(OCc2cc(F)cc3c2OC(C)(C)C3)c(F)c1CC [Example 243, 3-(2-ethyl-3-fluoro-4-((5-fluoro-2,2-dimethyl-2,3-dihydrobenzofuran-7-yl)methoxy)phenyl)-2,2,3,3-tetradeuteriopropanoic acid] | 155.23 |  |
| CC1(C)Cc2cc(Cl)cc(COc3ccccc3CCC(=O)O)c2O1 [Example 250, 3-(2-((5-chloro-2,2-dimethyl-2,3-dihydrobenzofuran-7-yl)methoxy)phenyl)propanoic acid] | 10.23 |  |
| CC(Cc1cccc(OCc2cc(Cl)cc3c2OC(C)(C)C3)c1)C(=O)O (stereo not shown) [Example 251, 3-(3-((5-chloro-2,2-dimethyl-2,3-dihydrobenzofuran-7-yl)methoxy)phenyl)-2-methylpropanoic acid] | 61.14 |  |
| Cc1cc(CCC(=O)O)c(C)c(C)c1OCc1cc(F)cc2c1OC(C)(C)C2 [Example 254, 3-(4-((5-fluoro-2,2-dimethyl-2,3-dihydrobenzofuran-7-yl)methoxy)-2,3,5-trimethylphenyl) propanoic acid] | 146.14 |  |
| CC(C)Oc1ccc(Cl)cc1COc1cc2c(cc1F)C(CC(=O)O)CC2 (stereo not shown) [Example 257, 2-(5-((5-chloro-2-isopropoxybenzyl)oxy)-6-fluoro-2,3-dihydro-1H-inden-1-yl)acetic acid] | 124.62 |  |
| CC(C)Oc1ccc(Cl)cc1COc1ccc2c(c1)CCC2CC(=O)O (stereo not shown) [Example 258, 2-(5-((5-chloro-2-isopropoxybenzyl)oxy)-2,3-dihydro-1H-inden-1-yl)acetic acid] | 139.95 |  |
| CC(C)Oc1ncccc1COc1ccc2c(c1)CCC2CC(=O)O (stereo not shown) [Example 259, 2-(5-((2-isopropoxypyridin-3-yl)methoxy)-2,3-dihydro-1H-inden-1-yl)acetic acid] | 118.5 |  |
| CC(Cc1cc(F)c(OCc2cccc3cn[nH]c23)c(F)c1)C(=O)O (stereo not shown) [Example 260, 3-(4-((1H-indazol-7-yl)methoxy)-3,5-difluorophenyl)-2-methylpropanoic acid] | 16.67 |  |
| Cc1nc2cccc(COc3c(F)cc(CC(C)C(=O)O)cc3F)c2o1 (stereo not shown) [Example 261, 3-(3,5-difluoro-4-((2-methylbenzo[d]oxazol-7-yl)methoxy)phenyl)-2-methylpropanoic acid] | 108.78 |  |
| CC1(C)Cc2cc(F)cc(COc3ccc4c(CC(=O)O)coc4c3)c2O1 [Example 262, 2-(6-((5-fluoro-2,2-dimethyl-2,3-dihydrobenzofuran-7-yl)methoxy)benzofuran-3-yl)acetic acid] | 137.39 |  |
| CC1(C)Cc2cc(F)cc(COc3ccc4c(CC(=O)O)cc(=O)oc4c3)c2O1 [Example 263, 2-(7-((5-fluoro-2,2-dimethyl-2,3-dihydrobenzofuran-7-yl)methoxy)-2-oxo-2H-chromen-4-yl)acetic acid] | 5.98 |  |
| CC(Cc1ccc(OCc2cc(F)cc3c2OC(C)(C)C3)cc1)C(=O)NO (stereo not shown) [Example 264, 3-(4-((5-fluoro-2,2-dimethyl-2,3-dihydrobenzofuran-7-yl)methoxy)phenyl)-N-hydroxy-2-methylpropanamide] | 110.24 |  |
| CC(C)C(CC(=O)O)c1ccc(OCc2cc(Cl)cc3c2OC(C)(C)C3)cc1 (stereo not shown) [Example 266, 3-(4-((5-chloro-2,2-dimethyl-2,3-dihydrobenzofuran-7-yl)methoxy)phenyl)-4-methylpentanoic acid] | 42.73 |  |
| Cc1c(CCC(=O)O)ccc(OCc2cc(Cl)cc3c2CC(C)(C)O3)c1C [Example 267, 3-(4-((6-chloro-2,2-dimethyl-2,3-dihydrobenzofuran-4-yl)methoxy)-2,3-dimethylphenyl)propanoic acid] | 140.82 |  |
